Data from article PMC11271627, “Molecular dynamics-guided optimization of BGM0504 enhances dual-target agonism for combating diabetes and obesity” (Scientific Reports, 2024).
Marks after values point to notes of the source that are not given here.

Assays:
in vivo = assay: in vivo; design: species or system SD rats; settings: rat; for AUC(0-inf) / AUC(0-t): SD
Procedure: In this experiment, a total of 24 rats (12 of each sex) were provided by Beijing Vitong Lever Experimental Animal Technology Co., Ltd. Each animal was identified using a tail mark and had its health status confirmed by Suzhou WuXi AppTec’s veterinary team before use. The animal room was monitored for temperature and humidity, with data recorded daily to ensure that the relative humidity was maintained at 40%–70% and the temperature was between 20–26°C. The lighting adopted a 12-hour alternating light and dark mode. Regular growth feed was provided daily, and animals had ready access to water. […] Post-administration, the condition of the animals was observed and documented before and after each blood collection point. The ensemble of 24 SD rats was divided into four groups, with three specimens of each gender in each group. Animals in group 1 received a single intravenous bolus of 0.2 mg/kg BGM0504, and groups 2, 3, and 4 received a single subcutaneous injection of 0.3, 1.5, and 7.5 mg/kg BGM0504 in 20 mM citrate buffered solution (pH=7.0±0.2), respectively. Blood samples were collected for pharmacokinetic analysis at specific time points (0.5, 1, 2, 4, 8, 12, 24, 48, 72, 96, and 120 hours) before and after dosing. At the same time, blood glucose levels were measured before and at 1, 4, 8, 12, and 24 hours after dosing. The collected blood samples were transferred to labeled commercial sample tubes containing K2-EDTA, centrifuged, and plasma was retrieved; some were used for analysis, and the other part was reserved as a backup. Plasma was transferred to pre-cooled centrifuge tubes, snap-frozen in dry ice, and stored in an ultra-low temperature freezer at -60°C or lower until transported to the Drug Evaluation Department of WuXi AppTec Shanghai Drug Development Co., Ltd. for analysis.

[1] = tested on: STZ + HFD-induced C57BL/6 mice; assay: STZ + HFD-induced diabetes and NASH model in C57BL/6 mice; format: in vivo; settings: Mean±SEM; for Ballooning Degeneration score / Inflammatory Cell Infiltration score / NAS (NAFLD Activity Score) / Steatosis score: liver H&E staining; for Fibrosis percentage: liver Sirius red staining, fibrosis area of total section area; for ALT / AST: serum; for ALT: HFD 8 weeks
Procedure: Both the control and model groups received a subcutaneous injection of the drug vehicle, while only the model group was fed a high-fat diet (HFD). […] This experiment involved selecting 30 SPF grade C57BL/6 pregnant female mice provided by Shanghai Jihui Experimental Animal Breeding Co., Ltd. Newborn male mice underwent subcutaneous injection of STZ (streptozotocin) (100 μg each) within 48 hours after birth and were nursed by their mothers for 4 weeks. During this period, we measured the fasting blood glucose of the mice and selected 65 diabetic male mice with fasting blood glucose values greater than or equal to 12 mmol/L as experimental animals. These mice were fed a HFD for 8 weeks to establish the STZ + HFD-induced diabetes and Nonalcoholic Steatohepatitis (NASH) model in male C57BL/6 mice. Fasting blood sugar was detected after 1 week of HFD feeding in these NASH model mice. Based on fasting blood sugar and body weight, they were randomly divided into the model group, the Tirzepatide-0.15 mg/kg group, the BGM0504-0.05 mg/kg group, the BGM0504-0.15 mg/kg group, and the BGM0504-0.5 mg/kg group. The treatment groups received administration once every 3 days. Additionally, their mothers nursed 10 newborn male mice without STZ injection for 4 weeks and then fed a regular maintenance diet as a control group. After HFD feeding, body weights were measured, and the animals’ food intake was recorded every 3 days until the end of the experiment. Three days after the last dose, animal weights were measured. Following a 6-hour fasting period, all experimental animals were anesthetized with an intraperitoneal injection of sodium pentobarbital. Non-anticoagulated whole blood was collected through the orbital venous plexus, left at room temperature for 30 minutes, and centrifuged at 5000 rpm for 5 minutes. The serum was separated and stored at -80°C for biochemical testing. After thawing the frozen serum samples, serum ALT, AST, TG, TC, HDL-c and LDL-c levels […] were measured using a Hitachi 7060 automatic biochemical detector. Insulin content was determined using an enzyme-linked immunoassay kit. After the dissection procedure, the liver was perfused with pre-cooled saline and then obtained and photographed. Its weight was also measured. Subsequently, the liver was immersed in 10% formalin for fixation and divided into two parts. One part underwent pathological hematoxylin and eosin (H&E) staining. The H&E staining was conducted on paraffin sections of all animal livers following the KCI pathology staining standard operating procedure (SOP). These stained sections were panoramically scanned using a NanoZoomer Digital Pathology scanner. Different fields of view were selected for observation at various magnifications, and the liver lobes in the sections were scored. The other part was subjected to pathological Sirius red (SR) staining. Similarly, SR staining was performed on paraffin sections of the liver following the KCI pathology staining SOP. The stained sections were also panoramically scanned using the NanoZoomer Digital Pathology scanner. Subsequently, VIS7.0 software was utilized to analyze the liver fibrosis area in the panoramically examined SR-stained sections, and the percentage of the liver fibrosis area with the total section area was calculated.

[2] = both sexes, Sprague-Dawley, iv, 0.2 mg/kg
[3] = both sexes, Sprague-Dawley, sc, 0.3 mg/kg
[4] = both sexes, Sprague-Dawley, sc, 1.5 mg/kg
[5] = both sexes, Sprague-Dawley, sc, 7.5 mg/kg
[6] = 0.05 mg/kg once every 3 days, n=11
[7] = 0.15 mg/kg once every 3 days, n=13
[8] = 0.5 mg/kg once every 3 days, n=13

Q: For `CC[C@H](C)[C@H](NC(=O)[C@H](CC(C)C)NC(=O)[C@H](Cc1c[nH]c2ccccc12)NC(=O)[C@H](CCC(N)=O)NC(=O)[C@@H](NC(=O)[C@H](Cc1ccccc1)NC(=O)[C@H](C)NC(=O)[C@H](CCCCN)NC(=O)[C@H](CCC(N)=O)NC(=O)[C@H](C)NC(=O)[C@@H](NC(=O)[C@H](CCCCN)NC(=O)[C@H](CC(=O)O)NC(=O)[C@H](CC(C)C)NC(=O)C(C)(C)NC(=O)[C@@H](NC(=O)[C@H](CO)NC(=O)[C@H](Cc1ccc(O)cc1)NC(=O)[C@H](CC(=O)O)NC(=O)[C@H](CO)NC(=O)[C@@H](NC(=O)[C@H](Cc1ccccc1)NC(=O)[C@@H](NC(=O)CNC(=O)[C@H](CCC(=O)O)NC(=O)C(C)(C)NC(=O)[C@@H](N)Cc1ccc(O)cc1)[C@@H](C)O)[C@@H](C)O)[C@@H](C)CC)[C@@H](C)CC)C(C)C)C(=O)N[C@@H](C)C(=O)NCC(=O)NCC(=O)N1CCC[C@H]1C(=O)N[C@@H](CO)C(=O)N[C@@H](CO)C(=O)NCC(=O)N[C@@H](C)C(=O)N1CCC[C@H]1C(=O)N1CCC[C@H]1C(=O)N1CCC[C@H]1C(=O)N[C@@H](CO)C(=O)N[C@@H](CCCCNC(=O)COCCOCCOCCNC(=O)COCCOCCOCCNC(=O)CC[C@H](NC(=O)CCCCCCCCCCCCCCCCCCC(=O)O)C(=O)O)C(N)=O` [BGM0504], which AUC(0-inf) (in vivo; both sexes, iv, 0.2 mg/kg) is on record?
A: 50000 ng·h/mL

Q: What about the AUC(0-inf) (in vivo; both sexes, sc, 0.3 mg/kg) of the same molecule?
A: 33400 ng·h/mL

Q: What about the AUC(0-t) (in vivo; both sexes, sc, 0.3 mg/kg) of the same molecule?
A: 33200 ng·h/mL

Q: And the AUC(0-inf) (in vivo; both sexes, sc, 1.5 mg/kg)?
A: 154000 ng·h/mL

Q: And the AUC(0-t) (in vivo; both sexes, sc, 1.5 mg/kg)?
A: 153000 ng·h/mL

Q: What about the AUC(0-inf) (in vivo; both sexes, sc, 7.5 mg/kg) of the same molecule?
A: 643000 ng·h/mL

Q: And the AUC(0-t) (in vivo; both sexes, sc, 7.5 mg/kg)?
A: 637000 ng·h/mL

Q: What about the C0 (in vivo; [2]) of the same molecule?
A: 4650 ± 411 ng/mL

Q: What about the Vd (in vivo; [2]) of the same molecule?
A: 0.0648 ± 0.0058 L/kg

Q: What about the clearance (in vivo; [2]) of the same molecule?
A: 4.08 ± 0.618 mL/h/kg

Q: And the half-life (in vivo; [2])?
A: 13.6 ± 2.3 h

Q: What about the Cmax (in vivo; [3]) of the same molecule?
A: 814 ± 111 ng/mL

Q: What about the Tmax (in vivo; [3]) of the same molecule?
A: 24 h

Q: And the bioavailability (in vivo; [3])?
A: 44.5%

Q: What about the half-life (in vivo; [3]) of the same molecule?
A: 14.5 ± 1.4 h

Q: And the Cmax (in vivo; [4])?
A: 3830 ± 705 ng/mL

Q: What about the Tmax (in vivo; [4]) of the same molecule?
A: 24 h

Q: And the bioavailability (in vivo; [4])?
A: 41.1%

Q: And the half-life (in vivo; [4])?
A: 13.4 ± 1.5 h

Q: What about the Cmax (in vivo; [5]) of the same molecule?
A: 15100 ng/mL

Q: What about the Tmax (in vivo; [5]) of the same molecule?
A: 20 ± 6.2 h

Q: What about the bioavailability (in vivo; [5]) of the same molecule?
A: 34.3%

Q: And the half-life (in vivo; [5])?
A: 14.7 ± 2.4 h

Q: What about the AUC0-24 (in vivo; iv, 0.2 mg/kg) of the same molecule?
A: 38800 ng·h/mL

Q: What about the AUC0-last (in vivo; iv, 0.2 mg/kg) of the same molecule?
A: 49800 ng·h/mL

Q: And the “AUC0–last (as headed in Table 1)” value (in vivo; iv, 0.2 mg/kg)?
A: 38,800 ± 5150 ng h/mL

Q: And the “AUC0–∞ (as headed in Table 1)” value (in vivo; iv, 0.2 mg/kg)?
A: 49,800 ± 7470 ng h/mL

Q: What about the AUC0-24 (in vivo; sc, 0.3 mg/kg) of the same molecule?
A: 14100 ng·h/mL

Q: What about the “AUC0–last (as headed in Table 1)” value (in vivo; sc, 0.3 mg/kg) of the same molecule?
A: 14,100 ± 2440 ng h/mL

Q: And the “AUC0–∞ (as headed in Table 1)” value (in vivo; sc, 0.3 mg/kg)?
A: 33,200 ± 6190 ng h/mL

Q: And the AUC0-24 (in vivo; sc, 1.5 mg/kg)?
A: 63900 ng·h/mL

Q: What about the “AUC0–last (as headed in Table 1)” value (in vivo; sc, 1.5 mg/kg) of the same molecule?
A: 63,900 ± 11,400 ng h/mL

Q: And the “AUC0–∞ (as headed in Table 1)” value (in vivo; sc, 1.5 mg/kg)?
A: 153,000 ± 27,700 ng h/mL

Q: And the AUC0-24 (in vivo; sc, 7.5 mg/kg)?
A: 269000 ng·h/mL

Q: And the “AUC0–last (as headed in Table 1)” value (in vivo; sc, 7.5 mg/kg)?
A: 269,000 ± 43,000 ng h/mL

Q: And the “AUC0–∞ (as headed in Table 1)” value (in vivo; sc, 7.5 mg/kg)?
A: 637,000 ± 88,700 ng h/mL

Q: What about the HDL-c [1, 6] of the same molecule?
A: 2.30 ± 0.09 mmol/L

Q: What about the LDL-c [1, 6] of the same molecule?
A: 0.56±0.03^b mmol/L

Q: What about the TC [1, 6] of the same molecule?
A: 3.81±0.15^c mmol/L

Q: What about the TG [1, 6] of the same molecule?
A: 1.09±0.20^b mmol/L

Q: And the HDL-c [1, 7]?
A: 1.83 ± 0.22 mmol/L

Q: And the LDL-c [1, 7]?
A: 0.65±0.10^c mmol/L

Q: What about the TC [1, 7] of the same molecule?
A: 3.25±0.12^c mmol/L

Q: And the TG [1, 7]?
A: 0.84±0.12^b mmol/L

Q: What about the HDL-c [1, 8] of the same molecule?
A: 2.13 ± 0.13 mmol/L

Q: And the LDL-c [1, 8]?
A: 0.62±0.03^c mmol/L

Q: And the TC [1, 8]?
A: 3.53±0.09^c mmol/L

Q: And the TG [1, 8]?
A: 0.88±0.14^b mmol/L

Q: And the “Ballooning Degeneration score” value ([1]; 0.05 mg/kg, n=11)?
A: 0.00±0.00

Q: And the “Inflammatory Cell Infiltration score” value ([1]; 0.05 mg/kg, n=11)?
A: 0.91±0.08^a

Q: And the “NAS (NAFLD Activity Score)” value ([1]; 0.05 mg/kg, n=11)?
A: 1.42±0.14^a

Q: And the Steatosis score ([1]; 0.05 mg/kg, n=11)?
A: 0.52±0.12^a

Q: And the “Ballooning Degeneration score” value ([1]; 0.15 mg/kg, n=13)?
A: 0.00±0.00^a

Q: And the “Inflammatory Cell Infiltration score” value ([1]; 0.15 mg/kg, n=13)?
A: 0.90±0.06^a

Q: And the “NAS (NAFLD Activity Score)” value ([1]; 0.15 mg/kg, n=13)?
A: 1.36±0.15^a

Q: What about the Steatosis score ([1]; 0.15 mg/kg, n=13) of the same molecule?
A: 0.46±0.13^a

Q: And the “Ballooning Degeneration score” value ([1]; 0.5 mg/kg, n=13)?
A: 0.00±0.00

Q: And the “Inflammatory Cell Infiltration score” value ([1]; 0.5 mg/kg, n=13)?
A: 1.03±0.05^a

Q: What about the “NAS (NAFLD Activity Score)” value ([1]; 0.5 mg/kg, n=13) of the same molecule?
A: 1.36±0.10^a

Q: And the Steatosis score ([1]; 0.5 mg/kg, n=13)?
A: 0.33±0.08^a

Q: What about the Fibrosis percentage ([1]; 0.05 mg/kg, n=11) of the same molecule?
A: 1.11±0.05^a %

Q: And the Fibrosis percentage ([1]; 0.15 mg/kg, n=13)?
A: 1.10±0.04^b %

Q: And the Fibrosis percentage ([1]; 0.5 mg/kg, n=13)?
A: 1.07±0.05^c %

Q: And the ALT [1, 6]?
A: 73.97±9.20 U/L

Q: And the AST [1, 6]?
A: 155.44±10.85 U/L

Q: And the ALT [1, 7]?
A: 67.58±7.73^a U/L

Q: And the AST [1, 7]?
A: 152.48±6.56^a U/L

Q: What about the ALT [1, 8] of the same molecule?
A: 58.46±5.38^b U/L

Q: What about the AST [1, 8] of the same molecule?
A: 150.54±6.26^a U/L
